EP1928451B1, “METHODS FOR TREATING SUBSTANCE-RELATED DISORDERS” (SK Biopharmaceuticals Co., LTD, priority 2005, dated 2007)

Legend:
[1] = test system: selectively-bred alcohol preferring (P) rats; assay: Acute administration: two-bottle choice alcohol intake in alcohol preferring rats; type: in vivo; conditions: dose of about 45 mg/kg and up, oral
Description: (§1) A compound of the present invention was tested in ethanol preferring rats, a model for acute and chronic drug addiction in humans using an adaptation of a published method (See, Rezvani, AH et al. Alcohol & Alcoholism, Vol. 25, No. 5, pp. 573-575, 1990, Rezvani AH, et al., Alcohol and Alcoholism (Oxford), 2000, 35(1), 76-83).
(§2) An enantiomer of Formula (Ib) was orally administered in a dose range of from about 10 to about 90 mg/kg in test and control treatment groups of 10 rats per group over a period of 14 days. Test conditions reflected approaches for evaluating patterns of drinking (e.g., single or multiple events).
Adult male selectively-bred alcohol preferring (P) rats were used. […]
(§3) Establishment of baseline alcohol intake: Alcohol intake was determined using a standard two-bottle choice method (as described in Murphy et al. 1988; McBride et al. 1990; Rezvani et al. 1990, 1991, 1993, 1995, 1997, Rezvani and Grady, 1994).
Animals were first given free access to water in a graduated Richter tube for 1 day. […] Water and alcohol intake was recorded at 6 and 24 hour after the treatment, food intake was measured at 24 hour. Animal body weight was measured every day. […]
The results were presented as means ±SEM (Standard Error of the Means). […] Statistical differences between treatment and control groups were determined by using ANOVA and Turkey Student's t test for multiple comparisons.

[2] = test system: selectively-bred alcohol preferring (P) rats; assay: Chronic administration: two-bottle choice alcohol intake in alcohol preferring rats; type: in vivo
Description: as §1, §2
Adult male selectively-bred alcohol preferring (P) rats were used. The selectively-bred alcohol-preferring (P) rats have been characterized and have been widely used to study the effects of different compounds on voluntary alcohol intake (Rezvani et al, 1990, 1991, 1992a, 1992b, 1999, 2000, 2002; 2003; Murphy et al, 1988; Overstreet et al., 1992, 1999; Li and McBride, 1995).
Rats were housed individually in wire mesh cages under a constant room temperature of 22 +1 °C and 12:12 light-dark cycle (8:00-20:00, dark). Animal were fed Agway Prolab Rat/Mouse/ Hamster 3000 formula and water ad libitum.
as §3
Animals were first given free access to water in a graduated Richter tube for 1 day. After the first day, the animals were given access to only a solution of 10% (v/v) ethanol for 3 consecutive days. During this period animals became accustomed to drinking from Richter tubes and to the taste and pharmacological effects of alcohol. Thereafter, they were given free access to both water and a solution of 10% alcohol for at least 3 consecutive weeks and throughout of the period of study. The rats had free access to food. Water and alcohol intake was recorded at 6 and 24 hour after the treatment, food intake was measured at 24 hour. Animal body weight was measured every day.
The effect of chronic administration of a test compound on alcohol intake and tolerance to the anti-craving effects of the test compound was tested in naïve rats treated (via gavage tube) once a day either vehicle or test compound. A test compound dose of 45 mg/Kg was selected as an effective dose for chronic administration based on the results of the acute administration study phase. Themost effective dose was then used for the chronic adminstiration phase and administered for 14 consecutive days. Alcohol and water intake was recorded 6 and 24 h after each treatment administration and food intake was recorded at 24 hr.
The results were presented as means ±SEM (Standard Error of the Means). Alcohol intake (g/kg) was calculated by multiplying the volume of alcohol consumed in mL by 10% and 0.7893 (a factor representing ethanol density)/body weight in kg. Alcohol preference, expressed as percentage, was calculated as follows (volume of alcohol consumed (mL)/total fluid intake (mL)) x 100 (as described in Rezvani and Grady,. 1994; Rezvani et al., 1997). Statistical differences between treatment and control groups were determined by using ANOVA and Turkey Student's t test for multiple comparisons.

[3] = BL (baseline, before treatment), drug group
[4] = Day 1, 45 mg/Kg once a day via gavage
[5] = Day 2, 45 mg/Kg once a day via gavage
[6] = Day 3, 45 mg/Kg once a day via gavage
[7] = Day 4, 45 mg/Kg once a day via gavage
[8] = Day 5, 45 mg/Kg once a day via gavage
[9] = Day 6, 45 mg/Kg once a day via gavage
[10] = Day 7, 45 mg/Kg once a day via gavage
[11] = Day 8, 45 mg/Kg once a day via gavage
[12] = Day 9, 45 mg/Kg once a day via gavage
[13] = Day 10, 45 mg/Kg once a day via gavage
[14] = Day 11, 45 mg/Kg once a day via gavage
[15] = Day 12, 45 mg/Kg once a day via gavage
[16] = Day 13, 45 mg/Kg once a day via gavage
[17] = Day 14, 45 mg/Kg once a day via gavage

SMILES: NC(=O)OC[C@@H](O)c1ccccc1Cl [Drug]
- effect on alcohol intake [1]: significant effect on alcohol intake
- tolerance for the test compound's affect on ethanol intake ([2]; 45 mg/Kg once a day for 14 consecutive days): without developing a tolerance
- Alcohol Intake [2, 3]: 5.30 g/kg
- Alcohol Pref [2, 3]: 71%
- Body Weight [2, 3]: 384 g
- Water Intake [2, 3]: 30 g/kg
- Alcohol Intake [2, 4]: 1.61 g/kg
- Alcohol Pref [2, 4]: 28%
- Body Weight [2, 4]: 418 g
- Water Intake [2, 4]: 62 g/kg
- Alcohol Intake [2, 5]: 1.31 g/kg
- Alcohol Pref [2, 5]: 24%
- Body Weight [2, 5]: 415 g
- Water Intake [2, 5]: 60 g/kg
- Alcohol Intake [2, 6]: 1.37 g/kg
- Alcohol Pref [2, 6]: 24%
- Body Weight [2, 6]: 413 g
- Water Intake [2, 6]: 60 g/kg
- Alcohol Intake [2, 7]: 1.03 g/kg
- Alcohol Pref [2, 7]: 16%
- Body Weight [2, 7]: 415 g
- Water Intake [2, 7]: 68 g/kg
- Alcohol Intake [2, 8]: 1.24 g/kg
- Alcohol Pref [2, 8]: 21%
- Body Weight [2, 8]: 419 g
- Water Intake [2, 8]: 68 g/kg
- Alcohol Intake [2, 9]: 1.10 g/kg
- Alcohol Pref [2, 9]: 21%
- Body Weight [2, 9]: 421 g
- Water Intake [2, 9]: 61 g/kg
- Alcohol Intake [2, 10]: 1.85 g/kg
- Alcohol Pref [2, 10]: 34%
- Body Weight [2, 10]: 424 g
- Water Intake [2, 10]: 48 g/kg
- Alcohol Intake [2, 11]: 2.21 g/kg
- Alcohol Pref [2, 11]: 35%
- Body Weight [2, 11]: 426 g
- Water Intake [2, 11]: 52 g/kg
- Alcohol Intake [2, 12]: 2.19 g/kg
- Alcohol Pref [2, 12]: 45%
- Body Weight [2, 12]: 429 g
- Water Intake [2, 12]: 40 g/kg
- Alcohol Intake [2, 13]: 3.06 g/kg
- Alcohol Pref [2, 13]: 52%
- Body Weight [2, 13]: 431 g
- Water Intake [2, 13]: 44 g/kg
- Alcohol Intake [2, 14]: 2.93 g/kg
- Alcohol Pref [2, 14]: 57%
- Body Weight [2, 14]: 435 g
- Water Intake [2, 14]: 30 g/kg
- Alcohol Intake [2, 15]: 2.67 g/kg
- Alcohol Pref [2, 15]: 58%
- Body Weight [2, 15]: 436 g
- Water Intake [2, 15]: 27 g/kg
- Alcohol Intake [2, 16]: 2.37 g/kg
- Alcohol Pref [2, 16]: 42%
- Body Weight [2, 16]: 431 g
- Water Intake [2, 16]: 48 g/kg
- Alcohol Intake [2, 17]: 2.32 g/kg
- Alcohol Pref [2, 17]: 40%
- Body Weight [2, 17]: 437 g
- Water Intake [2, 17]: 54 g/kg
